Where a name gives a salt, the structure may show the parent alone.
biological target: MAGL (Homo sapiens (Human), UniProt Q99685); assay: 2-AG assay (MAGL inhibitory activity, hydrolysis of 2-arachidonoylglycerol followed by mass spectrometry); format: biochemical; settings: 50 pM MAGL protein, 15 min pre-incubation, 30 min incubation at RT
Excerpt: Compounds of formula (II) were profiled for MAGL inhibitory activity by determining the enzymatic activity by following the hydrolysis of the natural substrate 2-arachidonoylglycerol (2-AG) resulting in arachidonic acid, which can be followed by mass spectrometry. This assay is hereinafter abbreviated “2-AG assay”.
Compounds of formula (II) were profiled for MAGL inhibitory activity by determining the enzymatic activity by following the hydrolysis of the natural substrate 2-arachidonoylglycerol (2-AG) resulting in arachidonic acid, which can be followed by mass spectrometry. This assay is hereinafter abbreviated “2-AG assay”. The 2-AG assay was carried out in 384 well polypropylene assay plates. Compound dilutions were made in 100% DMSO in a polypropylene plate in 3-fold dilution steps to give a final concentration range in the assay from 12.5 μM to 0.8 pM. Compound dilutions were added to MAGL protein in assay buffer (50 mM TRIS, 1 mM EDTA, 0.01% (v/v) Tween-20, 2.5% (v/v) DMSO). After shaking, the plate was incubated for 15 min at RT. To start the reaction, 2-arachidonoylglycerol in assay buffer was added. The final concentrations in the assay was 50 pM for MAGL protein and […] 2-arachidonoylglyerol. After shaking and 30 min incubation at RT, the reaction was quenched by the addition of two assay volumes of acetonitrile containing 4 μM of d8-arachidonic acid. The amount of arachidonic acid formed was traced by an online SPE system (Agilent Rapidfire) coupled to a triple quadrupole mass spectrometer. A C18 SPE cartridge (Agilent G9205A) was used in an acetonitrile/water liquid setup. The mass spectrometer was operated in negative electrospray mode following the mass transitions 303.1→259.1 for arachidonic acid and 311.1→267.0 for d8-arachidonic acid. The activity of the compounds was calculated based on the ratio of intensities [arachidonic acid/d8-arachidonic acid].

Sequence of MAGL (Q99685 whole entry, species assumed): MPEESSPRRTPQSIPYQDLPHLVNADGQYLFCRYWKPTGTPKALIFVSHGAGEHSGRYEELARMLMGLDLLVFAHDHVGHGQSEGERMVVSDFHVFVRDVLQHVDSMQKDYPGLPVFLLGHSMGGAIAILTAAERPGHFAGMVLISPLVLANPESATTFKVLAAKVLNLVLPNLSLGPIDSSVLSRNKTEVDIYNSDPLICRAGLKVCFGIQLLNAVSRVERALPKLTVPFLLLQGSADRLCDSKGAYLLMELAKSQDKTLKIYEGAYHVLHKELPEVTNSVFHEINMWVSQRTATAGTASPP

Row | SMILES | IC50
1 | CC1c2nn(C)c(-c3cc(F)cc(F)c3)c2CCN1C(=O)c1cc(F)cc(OCC2CNC(=O)C2)c1Cl (racemic) [Example 40, 4-[[2-Chloro-3-[3-(3,5-difluorophenyl)-2,7-dimethyl-5,7-dihydro-4H-pyrazolo[3,4-c]pyridine-6-carbonyl]-5-fluoro-phenoxy]methyl]pyrrolidin-2-one] | 293 nM
2 | C[C@@H]1c2nn(C)c(-c3cc(F)cc(F)c3)c2CCN1C(=O)c1ccc(CCC2CNC(=O)C2)cc1Cl (single isomer, unassigned) [Example 46, 4-[2-[3-Chloro-4-[3-(3,5-difluorophenyl)-2,7-dimethyl-5,7-dihydro-4H-pyrazolo[3,4-c]pyridine-6-carbonyl]phenyl]ethyl]pyrrolidin-2-one] | 258 nM
3 | C[C@@H]1c2nn(C)c(-c3cc(F)cc(F)c3)c2CCN1C(=O)c1cc(F)cc(OCC2CNC(=O)O2)c1Cl (single isomer, unassigned) [Example 51, 5-[[2-Chloro-3-[3-(3,5-difluorophenyl)-2,7-dimethyl-5,7-dihydro-4H-pyrazolo[3,4-c]pyridine-6-carbonyl]-5-fluoro-phenoxy]methyl]oxazolidin-2-one] | 187 nM
4 | C[C@@H]1c2nn(C)c(-c3cc(F)cc(F)c3)c2CCN1C(=O)c1cc(F)cc(OCC2CNC(=O)O2)c1Cl (single isomer, unassigned) [Example 52, 5-[[2-Chloro-3-[3-(3,5-difluorophenyl)-2,7-dimethyl-5,7-dihydro-4H-pyrazolo[3,4-c]pyridine-6-carbonyl]-5-fluoro-phenoxy]methyl]oxazolidin-2-one] | 2000 nM
5 | C[C@H]1c2nn(C)c(-c3cc(F)cc(F)c3)c2CCN1C(=O)c1ncnn1[C@H]1CCNC1 (single isomer, unassigned) [Example 54, [3-(3,5-Difluorophenyl)-2,7-dimethyl-5,7-dihydro-4H-pyrazolo[3,4-c]pyridin-6-yl]-(2-pyrrolidin-3-yl-1,2,4-triazol-3-yl)methanone; hydrochloride] | 714 nM
6 | C[C@H]1c2nn(C)c(-c3cc(F)cc(F)c3)c2CCN1C(=O)c1cc(Cl)cc(OC[C@@H]2CNC(=O)O2)c1Cl (single isomer, unassigned) [Example 108] | 294 nM
7 | C[C@H]1c2nn(C)c(-c3cc(F)cc(F)c3)c2CCN1C(=O)c1cc(Cl)cc(OC[C@H]2CNC(=O)O2)c1Cl (single isomer, unassigned) [Example 109] | 371 nM
8 | C[C@H]1c2nn(C)c(-c3cc(F)cc(F)c3)c2CCN1C(=O)c1cc(F)cc(OC[C@@H]2CNC(=O)N2)c1Cl (single isomer, unassigned) [Example 114] | 929 nM
9 | COc1cccc(C(=O)N2CCc3c(nn(C)c3-c3cc(Cl)cc(CNS(C)(=O)=O)c3)[C@H]2C)c1Cl [Example 2, N-[[3-Chloro-5-[(7R)-6-(2-chloro-3-methoxy-benzoyl)-2,7-dimethyl-5,7-dihydro-4H-pyrazolo[3,4-c]pyridin-3-yl]phenyl]methyl]methanesulfonamide] | 1650 nM

Molecules with a lower IC50, results first:

Row | IC50 | SMILES
10 | 0.5 nM | CC1c2nn(C)c(-c3cc(F)cc(F)c3)c2CCN1C(=O)c1cc(F)cc(OCC2CNC(=O)C2)c1Cl (single isomer, unassigned) [Example 38, 4-[[2-Chloro-3-[3-(3,5-difluorophenyl)-2,7-dimethyl-5,7-dihydro-4H-pyrazolo[3,4-c]pyridine-6-carbonyl]-5-fluoro-phenoxy]methyl]pyrrolidin-2-one]
11 | 169 nM | CC1c2nn(C)c(-c3cc(F)cc(F)c3)c2CCN1C(=O)c1cc(F)cc(OCC2CNC(=O)C2)c1Cl (single isomer, unassigned) [Example 39, 4-[[2-Chloro-3-[3-(3,5-difluorophenyl)-2,7-dimethyl-5,7-dihydro-4H-pyrazolo[3,4-c]pyridine-6-carbonyl]-5-fluoro-phenoxy]methyl]pyrrolidin-2-one]
12 | 1 nM | C[C@H]1c2nn(C)c(-c3cc(F)cc(F)c3)c2CCN1C(=O)c1cc(F)cc(OCC2CNC(=O)O2)c1Cl (single isomer, unassigned) [Example 49, 5-[[2-Chloro-3-[3-(3,5-difluorophenyl)-2,7-dimethyl-5,7-dihydro-4H-pyrazolo[3,4-c]pyridine-6-carbonyl]-5-fluoro-phenoxy]methyl]oxazolidin-2-one]
13 | 5 nM | C[C@H]1c2nn(C)c(-c3cc(F)cc(F)c3)c2CCN1C(=O)c1cc(F)cc(OCC2CNC(=O)O2)c1Cl (single isomer, unassigned) [Example 50, 5-[[2-Chloro-3-[3-(3,5-difluorophenyl)-2,7-dimethyl-5,7-dihydro-4H-pyrazolo[3,4-c]pyridine-6-carbonyl]-5-fluoro-phenoxy]methyl]oxazolidin-2-one]
14 | 2.48 nM | C[C@H]1c2nn(C)c(-c3cc(F)cc(F)c3)c2CCN1C(=O)c1cc(F)cc(OC[C@@H]2CNC(=O)N2)c1Cl (single isomer, unassigned) [Example 113]
15 | 5 nM | C[C@H]1c2nn(C)c(-c3cc(F)cc(F)c3)c2CCN1C(=O)c1cc(F)cc(OCC2CNC(=O)C2)c1Cl (stereo in doubt) [Example 37, 4-[[2-Chloro-3-[3-(3,5-difluorophenyl)-2,7-dimethyl-5,7-dihydro-4H-pyrazolo[3,4-c]pyridine-6-carbonyl]-5-fluoro-phenoxy]methyl]pyrrolidin-2-one]
16 | 127 nM | C[C@H]1c2nn(C)c(-c3cc(F)cc(F)c3)c2CCN1C(=O)c1ccc(CCC2CNC(=O)C2)cc1Cl (stereo in doubt) [Example 47, 4-[2-[3-Chloro-4-[3-(3,5-difluorophenyl)-2,7-dimethyl-5,7-dihydro-4H-pyrazolo[3,4-c]pyridine-6-carbonyl]phenyl]ethyl]pyrrolidin-2-one]
17 | 14 nM | COc1cccc(C(=O)N2CCc3c(nn(C)c3-c3cc(Cl)cc(CNS(C)(=O)=O)c3)[C@@H]2C)c1Cl [Example 1, N-[[3-Chloro-5-[(7S)-6-(2-chloro-3-methoxy-benzoyl)-2,7-dimethyl-5,7-dihydro-4H-pyrazolo[3,4-c]pyridin-3-yl]phenyl]methyl]methanesulfonamide]
18 | 63 nM | CNS(=O)(=O)Cc1cc(Cl)cc(-c2c3c(nn2C)[C@H](C)N(C(=O)c2cccc(OC)c2Cl)CC3)c1 [Example 3, 1-[3-Chloro-5-[(7S)-6-(2-chloro-3-methoxy-benzoyl)-2,7-dimethyl-5,7-dihydro-4H-pyrazolo[3,4-c]pyridin-3-yl]phenyl]-N-methyl-methanesulfonamide]
19 | 27 nM | COc1cccc(C(=O)N2CCc3c(nn(C)c3-c3cc(Cl)cc(S(N)(=O)=O)c3)[C@@H]2C)c1Cl [Example 4, 3-Chloro-5-[(7S)-6-(2-chloro-3-methoxy-benzoyl)-2,7-dimethyl-5,7-dihydro-4H-pyrazolo[3,4-c]pyridin-3-yl]benzenesulfonamide]
20 | 59 nM | COc1cccc(C(=O)N2CCc3c(nn(C)c3-c3cc(Cl)cc(C4(S(C)(=O)=O)CC4)c3)[C@@H]2C)c1Cl [Example 5, (2-Chloro-3-methoxy-phenyl)-[(7S)-3-[3-chloro-5-(1-methylsulfonylcyclopropyl)phenyl]-2,7-dimethyl-5,7-dihydro-4H-pyrazolo[3,4-c]pyridin-6-yl]methanone]
21 | 84 nM | COc1cccc(C(=O)N2CCc3c(nn(C)c3-c3cc(Cl)cc(CS(C)(=O)=O)c3)[C@@H]2C)c1Cl [Example 6, (2-Chloro-3-methoxy-phenyl)-[(7S)-3-[3-chloro-5-(methylsulfonylmethyl)phenyl]-2,7-dimethyl-5,7-dihydro-4H-pyrazolo[3,4-c]pyridin-6-yl]methanone]
